From ChEMBL document CHEMBL1135293, “Amino acid derived sulfonamide hydroxamates as inhibitors of procollagen C-proteinase. Part 2: Solid-phase optimization of side chains” (Bioorg Med Chem Lett, 2002)

These molecules were tested against T1, Bone morphogenetic protein 1 (Homo sapiens, UniProt P13497) (assay: Inhibitory activity against Procollagen C-Proteinase (PCP)).
T1 sequence (P13497 whole entry): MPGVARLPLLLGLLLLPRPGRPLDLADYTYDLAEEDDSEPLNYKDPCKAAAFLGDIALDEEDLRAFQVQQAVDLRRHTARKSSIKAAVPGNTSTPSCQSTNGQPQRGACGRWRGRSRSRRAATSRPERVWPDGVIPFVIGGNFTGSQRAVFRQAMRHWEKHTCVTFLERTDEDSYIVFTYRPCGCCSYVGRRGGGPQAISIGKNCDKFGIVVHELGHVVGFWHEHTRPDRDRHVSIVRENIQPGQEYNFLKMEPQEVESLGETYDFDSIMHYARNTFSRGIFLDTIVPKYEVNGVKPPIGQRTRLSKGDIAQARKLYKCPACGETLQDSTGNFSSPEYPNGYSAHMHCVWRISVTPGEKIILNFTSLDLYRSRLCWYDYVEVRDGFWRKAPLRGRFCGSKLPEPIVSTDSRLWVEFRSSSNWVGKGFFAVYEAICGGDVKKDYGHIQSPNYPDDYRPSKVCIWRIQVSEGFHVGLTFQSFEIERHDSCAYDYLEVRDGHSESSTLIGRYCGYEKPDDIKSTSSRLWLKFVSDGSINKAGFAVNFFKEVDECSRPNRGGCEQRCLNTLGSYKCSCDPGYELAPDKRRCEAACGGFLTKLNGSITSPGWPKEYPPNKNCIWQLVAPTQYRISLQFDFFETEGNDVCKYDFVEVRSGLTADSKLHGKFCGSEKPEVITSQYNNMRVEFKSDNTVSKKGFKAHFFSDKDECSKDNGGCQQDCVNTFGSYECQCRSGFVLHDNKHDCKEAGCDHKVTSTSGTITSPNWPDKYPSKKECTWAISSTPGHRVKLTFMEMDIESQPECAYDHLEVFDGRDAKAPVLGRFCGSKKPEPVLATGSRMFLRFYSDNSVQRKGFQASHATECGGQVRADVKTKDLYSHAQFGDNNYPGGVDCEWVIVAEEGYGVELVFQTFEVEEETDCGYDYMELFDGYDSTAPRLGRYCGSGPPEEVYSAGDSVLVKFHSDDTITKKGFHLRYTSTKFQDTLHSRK

| Compound | IC50 [nM] |
| --- | --- |
| COc1ccc(CSC[C@H](C(=O)NO)N(Cc2ccc3c(c2)OCO3)S(=O)(=O)c2ccc(OC)cc2)cc1 | 32 |
| COc1ccc(S(=O)(=O)N(Cc2sc3scc(C)c3c2C)[C@H](C)C(=O)NO)cc1 | 60 |
| COc1ccc(C[C@H](C(=O)NO)N(Cc2ccc3c(c2)OCO3)S(=O)(=O)c2ccc(OC)cc2)cc1 | 40 |
| COc1ccc(S(=O)(=O)N(Cc2ccc3cc(C)ccc3c2)[C@H](C)C(=O)NO)cc1 | 220 |
| COc1ccc(S(=O)(=O)N(Cc2ccc3c(c2)OCO3)[C@H](Cc2cn(C)cn2)C(=O)NO)cc1 | 50 |
| COc1ccc(S(=O)(=O)N(Cc2ccc3c(c2)OCO3)[C@@H](C(=O)NO)C(=O)C(N)CNC(=O)OCc2ccccc2Br)cc1 (stereo partly drawn) | 18 |
| COc1ccc(S(=O)(=O)N(Cc2ccc(Br)cc2)[C@H](C)C(=O)NO)cc1 | 37 |
| COc1ccc(S(=O)(=O)N(Cc2ccc3c(c2)OCO3)[C@H](Cc2cccs2)C(=O)NO)cc1 (stereo in doubt; 41) | 0.2 |
| COc1ccc(S(=O)(=O)N(Cc2ccc3c(c2)OCO3)[C@@H](C(=O)NO)C(=O)C(N)CNC(=O)OCc2ccccc2Cl)cc1 (stereo partly drawn) | 4.6 |
| COc1ccc(S(=O)(=O)N(Cc2ccc(OC)c(C)c2C)[C@H](C)C(=O)NO)cc1 | 220 |
| COc1ccc(S(=O)(=O)N(CCn2cccc2)[C@H](C)C(=O)NO)cc1 | 170 |
| COc1ccc(S(=O)(=O)N(Cc2ccc3c(c2)OCO3)[C@H](CSc2ccc(C)cc2)C(=O)NO)cc1 | 45 |
| COc1ccc(S(=O)(=O)N(Cc2ccc3c(c2)OCO3)[C@H](CCCCNC(=O)OCc2ccccc2)C(=O)NO)cc1 | 16 |
| COc1ccc(S(=O)(=O)N(Cc2ccc(C(C)C)cc2)[C@H](C)C(=O)NO)cc1 | 230 |
| COc1ccc(S(=O)(=O)N(Cc2cnc(Cl)s2)[C@H](C)C(=O)NO)cc1 | 180 |
| COc1ccc(S(=O)(=O)N(Cc2ccc3c(c2)OCO3)[C@@H](C(=O)NO)C(=O)C(N)CNC(=O)OCc2ccccc2)cc1 (stereo partly drawn) | 14 |
| C=CCOc1ccc2ccc(CN([C@H](C)C(=O)NO)S(=O)(=O)c3ccc(OC)cc3)cc2c1 | 130 |
| COc1ccc(S(=O)(=O)N(Cc2sccc2Oc2ccccc2)[C@H](C)C(=O)NO)cc1 | 40 |

Second part, the molecule after the results:

| IC50 [nM] | Compound |
| --- | --- |
| 140 | COc1ccc(S(=O)(=O)N(Cc2cc(F)cc(F)c2)[C@H](C)C(=O)NO)cc1 |
| 6 | COc1ccc(S(=O)(=O)N(Cc2ccccc2C(F)(F)F)[C@H](C)C(=O)NO)cc1 |
| 80 | COc1ccc(S(=O)(=O)N(Cc2ccc(SC)cc2)[C@H](C)C(=O)NO)cc1 |
| 32 | COc1ccc(S(=O)(=O)N(Cc2ccc3c(c2)OCO3)[C@H](Cc2ccc([N+](=O)[O-])cc2)C(=O)NO)cc1 |
| 76 | COc1ccc(S(=O)(=O)N(Cc2ccc(F)c(F)c2)[C@H](C)C(=O)NO)cc1 |
| 60 | COc1ccc(S(=O)(=O)N(Cc2ccc(C)c([N+](=O)[O-])c2)[C@H](Cc2cccs2)C(=O)NO)cc1 |
| 53 | COc1ccc(S(=O)(=O)N(Cc2ccc3c(c2)OCO3)[C@@H](C(=O)NO)C(C)C)cc1 |
| 27 | COc1ccc(S(=O)(=O)N(Cc2ccc3c(c2)OCO3)[C@H](Cc2cncn2Cc2ccccc2)C(=O)NO)cc1 |
| 120 | COc1ccc(S(=O)(=O)N(Cc2ccc(Cl)c(Cl)c2)[C@H](C)C(=O)NO)cc1 |
| 0.2 | COc1ccc(S(=O)(=O)N(Cc2ccc3c(c2)OCO3)[C@H](Cc2cccs2)C(=O)NO)cc1 (stereo in doubt; 2) |
| 93 | COc1ccc(S(=O)(=O)N(Cc2cccc(Br)c2)[C@H](C)C(=O)NO)cc1 |
| 230 | COc1ccc(S(=O)(=O)N(Cc2cc(C)on2)[C@H](C)C(=O)NO)cc1 |
| 220 | COc1ccc(S(=O)(=O)N(Cc2cc(C(F)(F)F)cc(C(F)(F)F)c2)[C@H](C)C(=O)NO)cc1 |
| 52 | COc1ccc(S(=O)(=O)N(Cc2ccc3c(c2)OCO3)[C@H](CCCNC(=O)OC(C)(C)C)C(=O)NO)cc1 |
| 90 | COc1ccc(S(=O)(=O)N(Cc2cccc3ccccc23)[C@H](C)C(=O)NO)cc1 |
| 36 | COc1ccc(S(=O)(=O)N(Cc2ccc3c(c2)OCO3)[C@H](Cc2cncn2C(c2ccccc2)(c2ccccc2)c2ccccc2)C(=O)NO)cc1 |
| 0.024 | COc1ccc(S(=O)(=O)N(Cc2ccc3c(c2)OCO3)[C@@H](C(=O)NO)C(=O)C(N)CNC(=O)OCC2c3ccccc3-c3ccccc32)cc1 (stereo partly drawn) |
| 120 | COc1ccc(S(=O)(=O)N(Cc2cccc(C)c2[N+](=O)[O-])[C@H](C)C(=O)NO)cc1 |
| 23 | C=CCOC(=O)NCC(N)C(=O)[C@H](C(=O)NO)N(Cc1ccc2c(c1)OCO2)S(=O)(=O)c1ccc(OC)cc1 (stereo partly drawn) |
| 23 | COc1ccc(S(=O)(=O)N(Cc2ccc3c(c2)OCO3)[C@H](COC(C)(C)C)C(=O)NO)cc1 |
| 30 | COc1ccc(S(=O)(=O)N(Cc2ccc(Cl)c([N+](=O)[O-])c2)[C@H](C)C(=O)NO)cc1 |
| 70 | COc1ccc(S(=O)(=O)N(Cc2ccc(Br)cc2)[C@H](Cc2cccs2)C(=O)NO)cc1 |

Each molecule was assayed against T1, Bone morphogenetic protein 1 (assay: Inhibitory activity against procollagen C-proteinase (PCP).).

| Compound | IC50 [nM] |
| --- | --- |
| COc1ccc(S(=O)(=O)N(CCn2cccc2)[C@H](Cc2cccs2)C(=O)NO)cc1 | 610 |
| CCCCN(C)C(=N)NCCCC[C@H](C(=O)O)N(Cc1ccc2c(c1)OCO2)S(=O)(=O)c1ccc(OC)cc1 | 200 |
| COc1ccc(S(=O)(=O)N(Cc2cccc(Cl)c2)[C@H](Cc2cccs2)C(=O)NO)cc1 | 390 |
| COc1ccc(S(=O)(=O)N(Cc2ccc3c(c2)OCO3)[C@H](CCC(=O)OC2CCCCC2)C(=O)O)cc1 | 470 |
| COc1ccc(S(=O)(=O)N(Cc2ccc3c(c2)OCO3)[C@H](Cc2ccc(Br)s2)C(=O)O)cc1 | 670 |
| C=CCOc1ccc2ccc(CN([C@H](Cc3cccs3)C(=O)NO)S(=O)(=O)c3ccc(OC)cc3)cc2c1 | 290 |
| COc1ccc(S(=O)(=O)N(Cc2cccc(Br)c2)[C@H](Cc2cccs2)C(=O)O)cc1 | 230 |
| COc1ccc(S(=O)(=O)N(Cc2cccc(C)c2F)[C@H](Cc2cccs2)C(=O)NO)cc1 | 150 |
| COc1ccc(S(=O)(=O)N(Cc2ccc(Cl)cc2Cl)[C@H](Cc2cccs2)C(=O)NO)cc1 | 860 |
| COc1ccc(S(=O)(=O)N(Cc2ccc3c(c2)OCO3)[C@@H](C(=O)O)C2CCN(C(=O)OC(C)(C)C)CC2)cc1 | 26 |
| COc1ccc(S(=O)(=O)N(Cc2ccc(Br)cc2F)[C@H](C)C(=O)O)cc1 | 490 |
| COc1ccc(S(=O)(=O)N(Cc2cc(F)c(F)cc2F)[C@H](Cc2cccs2)C(=O)NO)cc1 | 180 |
| COc1ccc(S(=O)(=O)N(Cc2ccc(C(C)C)cc2)[C@H](C)C(=O)O)cc1 | 350 |
| COc1ccc(S(=O)(=O)N(Cc2ccc(I)cc2)[C@H](Cc2cccs2)C(=O)NO)cc1 | 360 |
| COC(=O)c1ccc(CN([C@H](Cc2cccs2)C(=O)NO)S(=O)(=O)c2ccc(OC)cc2)cc1 | 110 |
| COc1ccc(S(=O)(=O)N(Cc2ccc(C)cc2)[C@H](Cc2cccs2)C(=O)NO)cc1 | 110 |
| C=Cc1ccc(CN([C@H](Cc2cccs2)C(=O)NO)S(=O)(=O)c2ccc(OC)cc2)cc1 | 190 |

Second part, the molecule after the results:

| IC50 [nM] | Compound |
| --- | --- |
| 380 | COc1ccc(S(=O)(=O)N(Cc2cccc(C)c2[N+](=O)[O-])[C@H](C)C(=O)O)cc1 |
| 80 | COc1ccc(S(=O)(=O)N(Cc2ccc(F)c(F)c2)[C@H](Cc2cccs2)C(=O)NO)cc1 |
| 24 | COc1ccc(S(=O)(=O)N(Cc2ccc3c(c2)OCO3)[C@H](Cc2cccs2)C(=O)O)cc1 |
| 590 | COc1ccc(S(=O)(=O)N(Cc2cc(C(F)(F)F)cc(C(F)(F)F)c2)[C@H](Cc2cccs2)C(=O)NO)cc1 |
| 200 | COc1ccc(S(=O)(=O)N(Cc2ccc(OC)c(C)c2C)[C@H](C)C(=O)O)cc1 |
| 250 | COc1ccc(CSC[C@H](C(=O)O)N(Cc2ccc3c(c2)OCO3)S(=O)(=O)c2ccc(OC)cc2)cc1 |
| 440 | COc1ccc(S(=O)(=O)N(Cc2ccc(Cl)c(Cl)c2)[C@H](Cc2cccs2)C(=O)NO)cc1 |
| 100 | COc1ccc(S(=O)(=O)N(Cc2cccc(F)c2F)[C@H](Cc2cccs2)C(=O)NO)cc1 |
| 592 | COc1ccc(S(=O)(=O)N(Cc2ccc3c(c2)OCO3)[C@H](Cc2ccncc2)C(=O)O)cc1 |
| 440 | COc1ccc(S(=O)(=O)N(Cc2ccc(-c3cnns3)cc2)[C@H](Cc2cccs2)C(=O)NO)cc1 |
| 50 | COc1ccc(S(=O)(=O)N(Cc2sc3scc(C)c3c2C)[C@H](C)C(=O)O)cc1 |
| 10 | C#CC[C@H](C(=O)O)N(Cc1ccc2c(c1)OCO2)S(=O)(=O)c1ccc(OC)cc1 |
| 28 | CCN(CC)C(=N)NCCC[C@H](C(=O)O)N(Cc1ccc2c(c1)OCO2)S(=O)(=O)c1ccc(OC)cc1 |
| 280 | COc1ccc(S(=O)(=O)N(Cc2cccc(I)c2)[C@H](C)C(=O)O)cc1 |
| 490 | COc1ccc(S(=O)(=O)N(Cc2ccc(OC)c(C)c2)[C@H](Cc2cccs2)C(=O)NO)cc1 |
| 380 | COc1ccc(S(=O)(=O)N(Cc2ccc3c(c2)OCO3)[C@H](COCc2ccccc2)C(=O)O)cc1 |
